Source: patent publication US20100204130A1, “USE OF HUMAN NEUROPEPTIDE AS A THERAPEUTIC AGENT” (priority 2007, published 2010)
Where a SMILES comes first, the peptide text is derived from it.

Test system: drug-resistant Mycobacterium tuberculosis
Conditions: 5 micrograms per ml

CC(C)C[C@H](NC(=O)CNC(=O)[C@H](CCC(=O)O)NC(=O)CNC(=O)[C@H](C)N)C(=O)N[C@@H](CC(N)=O)C(=O)N[C@@H](CO)C(=O)N[C@@H](CCC(N)=O)C(=O)N[C@@H](Cc1ccccc1)C(=O)N[C@@H](Cc1c[nH]c2ccccc12)C(=O)N[C@@H](CO)C(=O)N[C@@H](CC(C)C)C(=O)N[C@@H](C)C(=O)N[C@@H](C)C(=O)N1CCC[C@H]1C(=O)N[C@@H](CCC(N)=O)C(=O)N[C@@H](CCCNC(=N)N)C(=O)N[C@@H](Cc1ccccc1)C(N)=O [Neuropeptide AF, Ala-Gly-Glu-Gly-Leu-Asn-Ser-Gln-Phe-Trp-Ser-Leu-Ala-Ala-Pro-Gln-Arg-Phe-NH2] (H-AGEGLNSQFWSLAAPQRF-NH2)
% inhibition: 0.0%
